Experiments:
K-562 = test system: K-562; design: method as in https://dtp.cancer.gov/dtpstandard/dwindex/index.jsp; conditions: reference drugs, ref https://dtp.cancer.gov/dtpstandard/dwindex/index.jsp; cited from earlier work
SR = test system: SR; design: method as in https://dtp.cancer.gov/dtpstandard/dwindex/index.jsp; conditions: reference drugs, ref https://dtp.cancer.gov/dtpstandard/dwindex/index.jsp; cited from earlier work
NCI-H460 [1] = test system: NCI-H460; design: method as in https://dtp.cancer.gov/dtpstandard/dwindex/index.jsp; conditions: reference drugs, ref https://dtp.cancer.gov/dtpstandard/dwindex/index.jsp; cited from earlier work
HCC-2998 = test system: HCC-2998; design: method as in https://dtp.cancer.gov/dtpstandard/dwindex/index.jsp; conditions: reference drugs, ref https://dtp.cancer.gov/dtpstandard/dwindex/index.jsp; cited from earlier work
SF-539 = test system: SF-539; design: method as in https://dtp.cancer.gov/dtpstandard/dwindex/index.jsp; conditions: reference drugs, ref https://dtp.cancer.gov/dtpstandard/dwindex/index.jsp; cited from earlier work
SNB-75 [2] = test system: SNB-75; design: method as in https://dtp.cancer.gov/dtpstandard/dwindex/index.jsp; conditions: reference drugs, ref https://dtp.cancer.gov/dtpstandard/dwindex/index.jsp; cited from earlier work
OVCAR-5 [3] = test system: OVCAR-5; design: method as in https://dtp.cancer.gov/dtpstandard/dwindex/index.jsp; conditions: reference drugs, ref https://dtp.cancer.gov/dtpstandard/dwindex/index.jsp; cited from earlier work
ACHN = test system: ACHN; design: method as in https://dtp.cancer.gov/dtpstandard/dwindex/index.jsp; conditions: reference drugs, ref https://dtp.cancer.gov/dtpstandard/dwindex/index.jsp; cited from earlier work
RXF 393 = test system: RXF 393; design: method as in https://dtp.cancer.gov/dtpstandard/dwindex/index.jsp; conditions: reference drugs, ref https://dtp.cancer.gov/dtpstandard/dwindex/index.jsp; cited from earlier work
MCF7 [4] = test system: MCF7; design: method as in https://dtp.cancer.gov/dtpstandard/dwindex/index.jsp; conditions: reference drugs, ref https://dtp.cancer.gov/dtpstandard/dwindex/index.jsp; cited from earlier work
[5] = test system: CNS cancer tumour cell lines; conditions: cited from earlier work; for GI50: read-out: GI50 (subpanel average), reference drugs, ref https://dtp.cancer.gov/dtpstandard/dwindex/index.jsp; for CC50: read-out: LC50 (subpanel average), reference drugs, ref https://dtp.cancer.gov/dtpstandard/dwindex/index.jsp; for TGI (subpanel average): reference drugs, ref https://dtp.cancer.gov/dtpstandard/dwindex/index.jsp
[6] = test system: prostate cancer tumour cell lines; conditions: cited from earlier work; for GI50: read-out: GI50 (subpanel average), reference drugs, ref https://dtp.cancer.gov/dtpstandard/dwindex/index.jsp; for CC50: read-out: LC50 (subpanel average), reference drugs, ref https://dtp.cancer.gov/dtpstandard/dwindex/index.jsp; for TGI (subpanel average): reference drugs, ref https://dtp.cancer.gov/dtpstandard/dwindex/index.jsp
[7] = test system: full panel of 59 cancer cell lines; conditions: cited from earlier work; for GI50: read-out: GI50 MG-MID (full panel mean-graph midpoint), reference drugs, ref https://dtp.cancer.gov/dtpstandard/dwindex/index.jsp; for CC50: read-out: LC50 MG-MID (full panel mean-graph midpoint), reference drugs, ref https://dtp.cancer.gov/dtpstandard/dwindex/index.jsp; for TGI MG-MID (full panel mean-graph midpoint): reference drugs, ref https://dtp.cancer.gov/dtpstandard/dwindex/index.jsp
HL-60(TB) = test: cells; assay type: cell-based, human; conditions: Homo sapiens, HL-60, HL-60(TB); one dose 10 µM; read-out: Growth inhibition percentage (GI%)
NCI-H322M = test: NCI antitumor screen (SRB); assay type: cell-based; conditions: Homo sapiens, one dose 10 µM, read-out: Growth inhibition percentage (GI%)
NCI-H460 [8] = test: NCI antitumor screen (SRB); assay type: cell-based; conditions: Homo sapiens, one dose 10 µM, read-out: Growth inhibition percentage (GI%)
COLO 205 = test: NCI antitumor screen (SRB); assay type: cell-based; conditions: Homo sapiens, one dose 10 µM, read-out: Growth inhibition percentage (GI%)
SNB-19 = test: NCI antitumor screen (SRB); assay type: cell-based; conditions: Homo sapiens, one dose 10 µM, read-out: Growth inhibition percentage (GI%)
SNB-75 [9] = test: NCI antitumor screen (SRB); assay type: cell-based; conditions: Homo sapiens, one dose 10 µM, read-out: Growth inhibition percentage (GI%)
IGROV1 = test: NCI antitumor screen (SRB); assay type: cell-based; conditions: Homo sapiens, IGROV-1, one dose 10 µM, read-out: Growth inhibition percentage (GI%)
OVCAR-3 = test: NCI antitumor screen (SRB); assay type: cell-based; conditions: Homo sapiens, one dose 10 µM, read-out: Growth inhibition percentage (GI%)
OVCAR-5 [10] = test: NCI antitumor screen (SRB); assay type: cell-based; conditions: Homo sapiens, one dose 10 µM, read-out: Growth inhibition percentage (GI%)
786-0 = test: NCI antitumor screen (SRB); assay type: cell-based; conditions: Homo sapiens, one dose 10 µM, read-out: Growth inhibition percentage (GI%)
CAKI-1 = test: NCI antitumor screen (SRB); assay type: cell-based; conditions: Homo sapiens, one dose 10 µM, read-out: Growth inhibition percentage (GI%)
MCF7 [11] = test: NCI antitumor screen (SRB); assay type: cell-based; conditions: Homo sapiens, one dose 10 µM, read-out: Growth inhibition percentage (GI%)
T-47D = test: NCI antitumor screen (SRB); assay type: cell-based; conditions: Homo sapiens, T47D, one dose 10 µM, read-out: Growth inhibition percentage (GI%)
COX-2 = target: T1, COX-2 (Ovis aries, UniProt P79208); test: biochemical; conditions: mean of three determinations; read-out: IC50 COX-2 Inhibition
T1 construct: purchased Cayman Chemical 560101
T1 sequence (P79208 17-603): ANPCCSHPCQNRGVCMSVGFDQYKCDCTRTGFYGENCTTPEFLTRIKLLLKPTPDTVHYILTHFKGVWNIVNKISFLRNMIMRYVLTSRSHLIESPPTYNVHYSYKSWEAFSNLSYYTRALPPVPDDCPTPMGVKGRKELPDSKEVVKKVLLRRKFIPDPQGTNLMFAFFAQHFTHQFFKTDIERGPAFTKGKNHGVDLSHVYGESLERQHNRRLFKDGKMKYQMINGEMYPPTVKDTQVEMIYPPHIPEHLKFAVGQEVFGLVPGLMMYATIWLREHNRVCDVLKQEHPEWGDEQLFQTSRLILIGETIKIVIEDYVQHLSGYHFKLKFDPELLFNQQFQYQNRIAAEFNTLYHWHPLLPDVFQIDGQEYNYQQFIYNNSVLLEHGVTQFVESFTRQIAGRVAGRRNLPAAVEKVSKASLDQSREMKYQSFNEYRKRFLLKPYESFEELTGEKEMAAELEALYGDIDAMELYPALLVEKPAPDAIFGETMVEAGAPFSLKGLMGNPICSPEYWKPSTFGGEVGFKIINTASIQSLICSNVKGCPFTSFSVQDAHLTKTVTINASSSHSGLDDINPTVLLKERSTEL
Procedure: had been previously attached to the well. The plate was washed to remove any unbound reagents, and then Ellman’s reagent, containing the substrate of acetylcholine esterase, was added to the well. This enzymatic reaction produced a distinct yellow color that was absorbed in 410 nm. The intensity of the color, determined spectrophotometrically, was proportional to the amount of PG tracer bound to the well, which was inversely proportional to PGs present in the well during the incubation: Absorbance ∝ [Bound PG Tracer] a1/PGs. Percent inhibition was calculated by comparing the treated compound to various control incubations. The test compound […]
inhibition response curve (duplicate determinations). […]

[12] = test system: full panel of 59 cancer cell lines; test: NCI antitumor screen, full panel; conditions: one dose 10 µM

Row | Compound | GI50 [5] [µM] | CC50 [5] [µM] | TGI (subpanel average) [5] [µM] | GI50 [6] [µM] | CC50 [6] [µM] | TGI (subpanel average) [6] | GI50 [7] [µM] | CC50 [7] [µM] | TGI MG-MID (full panel mean-graph midpoint) [7] [µM] | inhibition at 10 µM (HL-60(TB)) [%] | inhibition at 10 µM (NCI-H322M) [%] | inhibition at 10 µM (NCI-H460 [8]) [%] | inhibition at 10 µM (COLO 205) [%] | inhibition at 10 µM (SNB-19) [%] | inhibition at 10 µM (SNB-75 [9]) [%] | inhibition at 10 µM (IGROV1) [%] | inhibition at 10 µM (OVCAR-3) [%] | inhibition at 10 µM (OVCAR-5 [10]) [%] | inhibition at 10 µM (786-0) [%] | inhibition at 10 µM (CAKI-1) [%] | other results
1 | Cc1ccc(-c2cc(C(F)(F)F)nn2-c2ccc(S(N)(=O)=O)cc2)cc1 [Celecoxib, celecoxib] | 17.2 | 58.8 | 31.62 | 14.2 | 57 | 28.37 µM | 17.5 | 63.3 | 34.0 |  |  |  |  |  |  |  |  |  |  |  | GI50 (K-562): 10 µM; GI50 (SR): 15.8 µM; GI50 (NCI-H460 [1]): 15.8 µM; GI50 (HCC-2998): 15.8 µM; GI50 (SF-539): 19.9 µM; GI50 (SNB-75 [2]): 15.8 µM; GI50 (OVCAR-5 [3]): 19.9 µM; GI50 (ACHN): 15.8 µM; GI50 (RXF 393): 15.8 µM; GI50 (MCF7 [4]): 15.8 µM
2 | O=c1[nH]cc(F)c(=O)[nH]1 [Compound 5-Fu, 5-fluorouracil, reference compound] | 14.4 | > 100 | 73.70 | 1.46 | > 100 | c (Compounds showed values ≥ 100 µM) | 0.9 | 95.6 | 43.4 | 52.1 | 40.5 | 87 | 59.8 | 34.1 | 34.1 | 48.8 | 52.6 | 55.7 | 51.3 | 60.6 | inhibition at 10 µM (MCF7 [11]): 88.5%; inhibition at 10 µM (T-47D): 43.3%
3 | CS(=O)(=O)c1ccc(C(=O)NN=Cc2cccc3ccccc23)cc1 [Compound 6, 4-(Methylsulfonyl)-N'-(naphthalen-1-ylmethylene)benzohydrazide] |  |  |  |  |  |  |  |  |  | 62.5 | < 10 | 33.2 | 14.3 | 20.2 | 10.3 | 36.8 | 32.2 | < 10 | < 10 | 32.8 | inhibition at 10 µM (MCF7 [11]): 55.1%; inhibition at 10 µM (T-47D): 14.7%; IC50 (COX-2): 36.3 ± 2.55 µM; PCE: positive cytotoxic effect (number of cell lines with GI 10 to 100% / total number of cell lines) [12]: 52/59

— PMC8288134, “Synthesis, potential antitumor activity, cell cycle analysis, and multitarget mechanisms of novel hydrazones incorporating a 4-methylsulfonylbenzene scaffold: a molecular docking study” (Journal of Enzyme Inhibition and Medicinal Chemistry, 2021)
